In patent US11702427B2 (priority 2018, dated 2023):

System: HBsAg
Assay: HBsAg assay: inhibition of HBsAg in HepG2.2.15 cells (CLIA immunoassay of supernatant)
Assay type: cell-based, hepatitis B virus (HBV)
Conditions: Hepatitis B virus, HepG2.2.15, 144 h, read-out: sAg EC50, HepG2.2.15 cells; supernatant collected at day 6 after exposure; HBsAg chemiluminescence immunoassay
Summary of the method: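 HepG2.2.15 cells (30,000/well) exposed to serially diluted compound (0.5% DMSO) for 2–3 days, then re-dosed in fresh medium for 3–4 more days. On day 6, supernatant HBsAg quantified by chemiluminescence immunoassay; EC50 from dose-response curves. Viability measured separately by CellTiter-Glo.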

| SMILES | EC50 [nM] |
| --- | --- |
| COCCCOc1cc2c(nc1OC)-c1[nH]c(=O)c(C(=O)N(C)C)c(O)c1C(C(C)(C)C)C2 (stereo not drawn) [Example 64] | 2000 |
| COCCCOc1cc2c(nc1OC)-c1[nH]c(=O)c(C(=O)NO)c(O)c1C(C(C)(C)C)C2 (stereo not drawn) [Example 65, 5-(tert-Butyl)-N,4-dihydroxy-9-methoxy-8-(3-methoxypropoxy)-2-oxo-1,2,5,6-tetrahydro-1,10-phenanthroline-3-carboxamide] | 2 |
| COCCCOc1cc2c(cc1OC)-c1[nH]c(=O)c(C(=O)NO)c(O)c1C(C(C)C)C2 (stereo not drawn) [Example 66, N,4-Dihydroxy-5-isopropyl-9-methoxy-8-(3-methoxypropoxy)-2-oxo-1,2,5,6-tetrahydrobenzo[h]quinoline-3-carboxamide] | 41 |
| COCCCOc1cc2c(nc1OC)-c1[nH]c(=O)c(C(=O)NO)cc1C(C(C)(C)C)C2 (stereo not drawn) [Example 67, 5-(tert-Butyl)-N-hydroxy-9-methoxy-8-(3-methoxypropoxy)-2-oxo-1,2,5,6-tetrahydro-1,10-phenanthroline-3-carboxamide] | 5 |
| COCCCOc1cc2c(nc1OC)-c1nc(Cl)c(C(=O)O)c(Cl)c1C(C(C)(C)C)C2 (stereo not drawn) [Example 68, 5-(tert-Butyl)-2,4-dichloro-9-methoxy-8-(3-methoxypropoxy)-5,6-dihydro-1,10-phenanthroline-3-carboxylicacid] | 10000 |
| COCCCOc1cc2c(cc1Cl)-c1[nH]c(=O)c(C(=O)O)cc1[C@H](C(C)C)CO2 [Example 69, (S)-10-Chloro-5-isopropyl-9-(3-methoxypropoxy)-2-oxo-1,2,5,6-tetrahydrobenzo[2,3]oxepino[4,5-b]pyridine-3-carboxylicacid] | 200 |
| COCCCOc1cc2c(cc1Cl)-c1[nH]c(=O)c(C(=O)O)c(O)c1[C@H](C(C)C)CO2 [Example 70, (S)-10-Chloro-4-hydroxy-5-isopropyl-9-(3-methoxypropoxy)-2-oxo-1,2,5,6-tetrahydrobenzo[2,3]oxepino[4,5-b]pyridine-3-carboxylic acid] | 120 |
| COCCCOc1cc2c(cc1COC)-c1[nH]c(=O)c(C(=O)O)c(O)c1[C@H](C(C)C)CO2 [Example 71, (S)-4-Hydroxy-5-isopropyl-10-(methoxymethyl)-9-(3-methoxypropoxy)-2-oxo-1,2,5,6-tetrahydrobenzo[2,3]oxepino[4,5-b]pyridine-3-carboxylicacid] | 280 |
| COCCCOc1cc2c(cc1CCOC)-c1[nH]c(=O)c(C(=O)O)c(O)c1[C@H](C(C)C)CO2 [Example 72, (S)-4-Hydroxy-5-isopropyl-10-(2-methoxyethyl)-9-(3-methoxypropoxy)-2-oxo-1,2,5,6-tetrahydrobenzo[2,3]oxepino[4,5-b]pyridine-3-carboxylic acid] | 600 |
| COCCCOc1cc2c(cc1OC)-c1[nH]c(=O)c(C(=O)O)cc1C1(CCCCC1)C2 [Example 73, 9-Methoxy-8-(3-methoxypropoxy)-2-oxo-2,6-dihydro-1H-spiro[benzo[h]quinoline-5,1′-cyclohexane]-3-carboxylic acid] | 110 |
| COCCCOc1cc2c(nc1Cl)-c1[nH]c(=O)c(C(=O)O)c(O)c1C(C(C)C)CO2 (stereo not drawn) [Example 74, 2-Chloro-8-hydroxy-7-isopropyl-3-(3-methoxypropoxy)-10-oxo-6,7,10,11-tetrahydrooxepino[3,2-b:4,5-b′]dipyridine-9-carboxylic acid] | 40 |
| COCCCOc1cc2c(nc1C1CCOCC1)-c1[nH]c(=O)c(C(=O)O)c(O)c1C(C(C)C)CO2 (stereo not drawn) [Example 79, 8-Hydroxy-7-isopropyl-3-(3-methoxypropoxy)-10-oxo-2-(tetrahydro-2H-pyran-4-yl)-6,7,10,11-tetrahydrooxepino[3,2-b:4,5-b′]dipyridine-9-carboxylic acid] | 5000 |
| COCCCOc1cc2c(nc1CCOC)-c1[nH]c(=O)c(C(=O)O)c(O)c1C(C(C)C)CO2 (stereo not drawn) [Example 84, 8-Hydroxy-7-isopropyl-2-(2-methoxyethyl)-3-(3-methoxypropoxy)-10-oxo-6,7,10,11-tetrahydrooxepino[3,2-b:4,5-b′]dipyridine-9-carboxylic acid] | 1200 |
| COCCCOc1cc2c(cc1OC)-c1[nH]c(=O)c(C(=O)O)c(OC)c1C(C(C)C)C2 (stereo not drawn) [Example 87, 5-Isopropyl-4,9-dimethoxy-8-(3-methoxypropoxy)-2-oxo-1,2,5,6-tetrahydrobenzo[h]quinoline-3-carboxylicacid] | 85 |
| COCCCOc1cc2c(cc1OC)-c1[nH]c(=O)c(C(=O)O)c(OCCOC)c1C(C(C)C)C2 (stereo not drawn) [Example 88, 5-Isopropyl-9-methoxy-4-(2-methoxyethoxy)-8-(3-methoxypropoxy)-2-oxo-1,2,5,6-tetrahydrobenzo[h]quinoline-3-carboxylic acid] | 4700 |
| COCCCOc1cc2c(cc1OC)-c1[nH]c(=O)c(C(=O)O)c(OCCN(C)C)c1C(C(C)C)C2 (stereo not drawn) [Example 89, 4-(2-(Dimethylamino)ethoxy)-5-isopropyl-9-methoxy-8-(3-methoxypropoxy)-2-oxo-1,2,5,6-tetrahydrobenzo[h]quinoline-3-carboxylic acid] | 4600 |
| COCCCOc1cc2c(cc1OC)-c1[nH]c(=O)c(C(=O)O)c(OCCO)c1C(C(C)C)C2 (stereo not drawn) [Example 90, 4-(2-Hydroxyethoxy)-5-isopropyl-9-methoxy-8-(3-methoxypropoxy)-2-oxo-1,2,5,6-tetrahydrobenzo[h]quinoline-3-carboxylicacid] | 11000 |
| CCOc1c2c([nH]c(=O)c1C(=O)O)-c1cc(OC)c(OCCCOC)cc1CC2C(C)C (stereo not drawn) [Example 91, 4-Ethoxy-5-isopropyl-9-methoxy-8-(3-methoxypropoxy)-2-oxo-1,2,5,6-tetrahydrobenzo[h]quinoline-3-carboxylicacid] | 1700 |
| COCCCOc1cc2c(nc1OC)-c1[nH]c(=O)c(C(=O)O)c(OC)c1C(C(C)(C)C)C2 (stereo not drawn) [Example 92, 5-(tert-Butyl)-4,9-dimethoxy-8-(3-methoxypropoxy)-2-oxo-1,2,5,6-tetrahydro-1,10-phenanthroline-3-carboxylic acid] | 640 |
| COCCCOc1cc2c(nc1C1CC1)-c1[nH]c(=O)c(C(=O)O)c(O)c1C(C(C)C)CO2 (stereo not drawn) [Example 93, 2-Cyclopropyl-8-hydroxy-7-isopropyl-3-(3-methoxypropoxy)-10-oxo-6,7,10,11-tetrahydrooxepino[3,2-b:4,5-b′]dipyridine-9-carboxylic acid] | 120 |
| COCCCOc1cc2c(cc1C1CCOCC1)-c1[nH]c(=O)c(C(=O)O)c(O)c1[C@H](C(C)C)CO2 [Example 94, (S)-4-Hydroxy-5-isopropyl-9-(3-methoxypropoxy)-2-oxo-10-(tetrahydro-2H-pyran-4-yl)-1,2,5,6-tetrahydrobenzo[2,3]oxepino[4,5-b]pyridine-3-carboxylic acid] | 730 |
